What all share (experiment): ≥ marks a high value that may be exact or a test limit, other limits are often not marked, values filed in µg/mL are converted to µM
Experiment [1] concerns Acinetobacter baumannii ATCC 19606.
For experiment [2], the system named is Mycobacterium tuberculosis FYX.
The test system of experiment [3] is Pseudomonas aeruginosa.
The test system of experiment [4] is Escherichia coli ATCC 35218.
Experiment [5] deals with Staphylococcus aureus ATCC 6538.
Experiment [6] has as its system Bacillus subtilis ATCC 6633.
Experiment [7] has as its system Staphylococcus aureus ATCC 25923.
The subject of experiment [8] is Mycobacterium tuberculosis WXY.
Experiment [9] relates to Escherichia coli ATCC 25922.
The test system of experiment [10] is Candida albicans 08A802.
In experiment [11] the test system is Candida albicans ATCC 2002.
Experiment [12] relates to Escherichia coli.
Experiment [13] has as its system Staphylococcus aureus 08A875.
The test system of experiment [14] is Mycobacterium tuberculosis CAS3.
Experiment [15] relates to Staphylococcus epidermidis.
For experiment [16], the system named is Candida albicans 08022710.
The subject of experiment [17] is Candida albicans ATCC 10231.
Experiment [18] concerns Pseudomonas aeruginosa ATCC 27853.
Experiment [19] deals with Acinetobacter baumannii 1.
For experiment [20], the system named is Mycobacterium tuberculosis H37Rv.
For experiment [21], the system named is Enterococcus faecalis.
Experiment [22] deals with Salmonella enterica subsp. enterica serovar Pullorum CVCC 1789.
Experiment [23] concerns Staphylococcus aureus ATCC 43300.
Experiment [24] relates to Escherichia coli CVCC 1515.
For experiment [25], the system named is Salmonella enterica subsp. enterica serovar Enteritidis CVCC 3377.
For experiment [26], the system named is Salmonella enterica subsp. enterica serovar Choleraesuis CVCC 503.
For experiment [27], the system named is Candida albicans CGMCC 2.2411.
In experiment [28] the test system is Pseudomonas aeruginosa CICC 10419.
The subject of experiment [29] is Escherichia coli O157:H7 CICC 21530.
In experiment [30] the test system is Salmonella enterica subsp. enterica serovar Pullorum CVCC 1802.
In experiment [31] the test system is Pseudomonas aeruginosa CICC 21630.
Experiment [32] concerns Listeria ivanovii ATCC 19119.
For experiment [33], the system named is Salmonella enterica subsp. enterica serovar Typhimurium ATCC 14028.
Experiment [34] concerns Escherichia coli CVCC 195.
The test system of experiment [35] is Streptococcus suis CVCC 606.
The subject of experiment [36] is Enterococcus faecium CMCC 1.2136.
The subject of experiment [37] is Staphylococcus aureus ATCC 49525.
For experiment [38], the system named is Pseudomonas aeruginosa PAO1.
The subject of experiment [39] is Porphyromonas gingivalis W50.
For experiment [40], the system named is Lacticaseibacillus rhamnosus 1.0911.
For experiment [41], the system named is Lacticaseibacillus rhamnosus 1.0936.
For experiment [42], the system named is Escherichia coli K88.
For experiment [43], the system named is Staphylococcus epidermidis ATCC 12228.
In experiment [44] the test system is Staphylococcus aureus ATCC 29213.
For experiment [45], the system named is Lacticaseibacillus rhamnosus 8014.
Experiment [46] deals with Lacticaseibacillus rhamnosus 1.9021.
Experiment [47] concerns Streptococcus agalactiae BNCC 185941.
The subject of experiment [48] is Salmonella enterica subsp. enterica serovar Pullorum C79-13.

Structures are written as SMILES. In brackets after ≈: the same amount, converted by molar mass. Several values for one entry are separate records, joined by “and”; a condition that tells them apart may be missing. Identical values can stand only once.

In the case of `CC(C)C[C@H](NC(=O)[C@H](CC(C)C)NC(=O)[C@H](CCCCN)NC(=O)[C@H](CCCCN)NC(=O)[C@@H](NC(=O)[C@H](C)N)C(C)C)C(=O)N[C@@H](CCCN=C(N)N)C(=O)N[C@@H](Cc1c[nH]c2ccccc12)C(=O)N[C@@H](Cc1c[nH]c2ccccc12)C(=O)N[C@@H](CO)C(=O)N[C@@H](CCCN=C(N)N)C(=O)N[C@@H](Cc1c[nH]c2ccccc12)C(=O)N[C@@H](Cc1c[nH]c2ccccc12)C(=O)N[C@@H](CCCCN)C(=O)N[C@@H](CCCCN)C(=O)O` [AVKKLLRWWSRWWKK], the MIC was 72.4 µM (≈ 150 µg/mL) in experiment [1]; 9.05 µM (≈ 18.8 µg/mL) in [2]; greater than 96.5 µM in [3]; no less than 96.5 µM in experiment [4]; greater than 96.5 µM in experiment [5]; no less than 72.4 µM in [6]. Further, the MIC in experiment [7] is greater than 96.5 µM; in [8] it was 4.53 µM (≈ 9.38 µg/mL); in experiment [9] it was greater than 96.5 µM; in experiment [10], no less than 72.4 µM; in [11], no less than 96.5 µM; in experiment [12], > 96.5 µM and 72.4 µM. Further, the MIC in [13] was no less than 72.4 µM; in [14], 9.05 µM (≈ 18.8 µg/mL); in experiment [15], no less than 96.5 µM; in experiment [16], no less than 96.5 µM; in experiment [17], greater than 96.5 µM; in [18], greater than 96.5 µM. Besides, the MIC in [19] is no less than 96.5 µM; in [20] it was 9.05 µM (≈ 18.8 µg/mL); in experiment [21] it was no less than 72.4 µM.

`CC(C)[C@H](NC(=O)CNC(=O)[C@H](CC(N)=O)NC(=O)[C@H](CCCN=C(N)N)NC(=O)[C@H](Cc1ccc(O)cc1)NC(=O)[C@@H](NC(=O)[C@@H](NC(=O)[C@H](CC(N)=O)NC(=O)[C@H](Cc1c[nH]c2ccccc12)NC(=O)[C@H](Cc1ccccc1)NC(=O)CN)C(C)C)C(C)C)C(=O)N[C@@H](CCCN=C(N)N)C(=O)N[C@H](C(=O)N[C@@H](Cc1cnc[nH]1)C(=O)N[C@@H](CCCN=C(N)N)C(=O)N[C@@H](CCCN=C(N)N)C(=O)N[C@@H](CC(N)=O)C(=O)O)C(C)C` [GFWNVVYRNGVRVHRRN]: the MIC was no less than 60.1 µM in experiment [22]; greater than 60.1 µM in experiment [23]; no less than 60.1 µM in [24]; 1.88 µM (≈ 4 µg/mL) in [25]; no less than 60.1 µM in experiment [26]; no less than 60.1 µM in experiment [27]. Besides, the MIC was no less than 60.1 µM in experiment [28]; 30.1 µM (≈ 64 µg/mL) in [6]; 0.939 µM (≈ 2 µg/mL) in experiment [7]; 30.1 µM (≈ 64 µg/mL) in experiment [29]; no less than 60.1 µM in experiment [30]; no less than 60.1 µM in [31]. The MIC in [32] is no less than 60.1 µM; in experiment [33] it was 60.1 µM (≈ 128 µg/mL); in experiment [34], 30.1 µM (≈ 64 µg/mL); in experiment [35] it was no less than 60.1 µM; in [36] it was 30.1 µM (≈ 64 µg/mL).

On to `CC[C@H](C)[C@H](NC(=O)[C@H](CCCCN)NC(=O)CN)C(=O)N[C@H](C(=O)N[C@@H](CCCCN)C(=O)N[C@@H](CC(C)C)C(=O)N[C@@H](CCCCN)C(=O)N[C@@H](C)C(=O)N[C@@H](CO)C(=O)N[C@@H](CC(C)C)C(=O)N[C@@H](CCCCN)C(=O)N[C@@H](CC(C)C)C(=O)N[C@@H](CC(C)C)C(N)=O)[C@@H](C)CC` [GKIIKLKASLKLL], for which the MIC in [37] is no less than 58.5 µM; in experiment [38], 5.61 µM and 7.3 µM; in experiment [39], no less than 70.2 µM.

Turning to `CC(C)C[C@H](NC(=O)CNC(=O)[C@H](CCCCN)NC(=O)[C@H](Cc1c[nH]c2ccccc12)NC(=O)[C@H](CCCCN)NC(=O)CNC(=O)[C@H](CC(C)C)NC(=O)[C@H](CC(C)C)NC(=O)[C@@H](N)CCCCN)C(=O)N[C@@H](CC(C)C)C(=O)N[C@@H](CCCCN)C(N)=O` [KLLGKWKGLLK], the MIC is greater than 128 µM in experiment [23]; no less than 128 µM in experiment [26]; no less than 128 µM in [40]; no less than 128 µM in [41]; 4 µM (≈ 5.13 µg/mL) in experiment [42]; no less than 128 µM in [29]. In addition, the MIC is greater than 128 µM in [43]; greater than 128 µM in [44]; 16 µM (≈ 20.5 µg/mL) in experiment [38]; no less than 128 µM in experiment [45]; 128 µM (≈ 164 µg/mL) in experiment [33]; no less than 128 µM in [46]. The MIC in [18] was 32 µM (≈ 41 µg/mL); in experiment [47], no less than 128 µM; in experiment [48] it was 8 µM (≈ 10.3 µg/mL).

A word on the MIC: it is the lowest concentration that inhibits growth of the organism. Read a high MIC as weaker potency.

The values are drawn from DBAASP.
